Measurements from patent publication US20210322393A1, “METHODS OF TREATING COGNITIVE IMPAIRMENT ASSOCIATED WITH NEURODEGENERATIVE DISEASE” (Aptinyx Inc., priority 2019, published 2021).

Columns and labels:
Assay type in all cases: in vivo
[1] = system: rodent cognitive models (novel object recognition); assay: Novel object recognition rodent cognitive model
Tolerability in rat = assay: Tolerability in rat
[2] = Pharmacokinetic profile in rat
[3] = system: rodent cognitive models (Morris water maze); assay: Morris water maze rodent cognitive model
[4] = Pharmacokinetic profile in dog
Tolerability in dog = assay: Tolerability in dog
[5] = system: MPTP non-human primate model of Parkinson's disease cognitive impairment; assay: Chronic low dose MPTP non-human primate model of Parkinson's disease cognitive impairment

With COc1ccc(CN2C[C@@]3(CCNC(=O)C3)C2=O)cc1 [The Compound, (S) 2-(4-methoxybenzyl)-2,7-diazaspiro[3.5]nonane-1,6-dione] the “efficacy in novel object recognition” value [1] was “robust efficacy”, the tolerability (Tolerability in rat) was “well tolerated” and the pharmacokinetic profile [2] was “favorable pharmacokinetic profile”. For the same compound, the “efficacy in Morris water maze” value [3] was “robust efficacy”, the pharmacokinetic profile [4] was “favorable pharmacokinetic profile” and the tolerability (Tolerability in dog) was “well tolerated”. For the same compound, the “onset, size and duration of effect” value ([5]; MPTP non-human primate study) was “rapid, robust, and long lasting effect” and the “effect on MPTP-induced cognitive deficits (attention, working memory, executive function)” value ([5]; primate versions of Cambridge Neuropsychological Test Automated Battery assessments) was “reversed MPTP-induced deficits in several cognitive domains”.
